Assay results reported in publication PMC11320734 (ACS Pharmacology & Translational Science, 2024).
≈ marks a conversion by molar mass, not a printed value. Like-named read-outs stand apart in the source and are kept apart here.

Legend:
hCB1R [1] = molecular target: T1, hCB1R (Homo sapiens, UniProt P21554); assay: cell-based; conditions: Table 1; mean ± SD; read-out: EC50 hCB1R (cAMP assay)
Solubility (Table 1) = assay type: physicochemical; conditions: thermodynamic from solid
Procedure: (§1) For the determination of the octanol/water distribution coefficient (logD), the carrier-mediated distribution system (CAMDIS)-assay was used as described elsewhere.[38] Kinetic and thermodynamic solubilities were assessed using the lyophilization solubility assay (LYSA) and thermodynamic solubility assay (THESA), respectively. For the LYSA, the solubility of RNB- 61 in phosphate buffer at pH 6.5 from an evaporated 10 mM DMSO compound stock solution was measured. Two aliquots of the test compounds were dried and dissolved in phosphate buffer at pH 6.5. The solutions were then filtered and diluted (3 different dilution levels for each compound) before high throughput mass spectrometry (MS) analysis was performed in an Agilent RapidFire system. Each test compound was quantified using a 6-point calibration curve prepared with the same DMSO starting solution. For THESA, RNB-61 (8.6 mg per mL solvent/vehicle) was stirred in HPLC vials (9 × 12 × 32 mm, Waters) at 350 rpm for 15 h. The presence of solid particles was determined by microscopic analysis of 10 μL samples. If the active pharmacological ingredient (API) was completely dissolved, more solid API was added before stirring for another 15 h. This step was repeated for up to 96 h or until residual solid particles could be detected. Samples (0.5 mL) were transferred to Eppendorf Ultrafree filter tubes (Filter: PVDF 0.22 μm) and centrifuged at 14,500 rpm for 10 min. The filtrates were diluted in ethanol and analyzed by ultra-performance liquid chromatography (UPLC). Measurements were repeated in 0.05 M aqueous phosphate buffer and in fasted (FaSSIF) and fed (FeSSIF) simulated gastrointestinal fluids.

[2] = Octanol/water distribution coefficient (logD), CAMDIS assay; assay type: physicochemical; conditions: octanol/water; read-out: logD
Procedure: as §1

[3] = Parallel artificial membrane permeability (PAMPA) assay; assay type: in vitro ADME; conditions: PAMPA, Table 1; read-out: PAMPA Peff
Procedure: The general permeability of the compound was assessed using the parallel artificial membrane permeability (PAMPA) assay and the permeability-glycoprotein (P-gp) assay was used to specifically test for brain penetration. PAMPA data were generated as previously reported by our group.[44] The P-gp assay, which evaluates the brain penetration of test compounds, was performed as described elsewhere.[45] Briefly, transfected porcine kidney epithelial (LLC-PK1) cells expressing human or mouse P-gp were cultured on 96-well semipermeable filter membrane plates (Millipore, Darmstadt, Germany). Cells formed a polarized monolayer with tight junctions that acted as a barrier between apical and basolateral compartments. P-gp was expressed in the apical-facing membrane of the monolayer (tightness confirmed using Lucifer yellow). To determine the unidirectional permeability (Papp) of RNB-61, samples were added separately to the apical (for A > B Papp) and basolateral (for B > A Papp) sides of the cell monolayer (i.e., donor compartments), and RNB-61 movement into the respective receiver compartments was measured by LC-MS/MS over a 3 h incubation at 37 °C. The effect of P-gp was measured by expressing the efflux ratio of the unidirectional A > B and B > A Papp values. The mean permeability (A > B and B > A Papp) was determined in the absence of P-gp via the addition of the selective P-gp inhibitor, tariquidar.

Microsomal clearance [4] = assay type: in vitro ADME; conditions: human, human microsomes; Table 1
human wild type CB2R = human wild type CB2R (Homo sapiens, UniProt P34972); assay: cAMP assay in CHO cells; assay type: cell-based; design: expressed in transfected cells; host or cells: CHO cells
human wild type CB2R, sequence (P34972 whole entry): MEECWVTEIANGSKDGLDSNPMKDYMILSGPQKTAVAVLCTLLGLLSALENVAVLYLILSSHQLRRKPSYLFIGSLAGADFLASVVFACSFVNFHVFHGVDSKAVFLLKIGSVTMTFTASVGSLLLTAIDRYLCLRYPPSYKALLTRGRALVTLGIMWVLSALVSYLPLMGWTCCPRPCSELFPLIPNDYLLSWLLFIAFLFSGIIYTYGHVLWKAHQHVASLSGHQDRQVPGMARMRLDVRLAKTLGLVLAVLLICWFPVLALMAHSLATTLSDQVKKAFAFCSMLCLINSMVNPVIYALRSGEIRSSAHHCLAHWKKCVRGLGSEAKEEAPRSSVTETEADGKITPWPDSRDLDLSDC

human CB2R = human CB2R (Homo sapiens, UniProt P34972); assay: Competition binding assay with [3H]-CP55940, HEK cell membranes; conditions: for hCB2R selectivity: Ki hCB1R over Ki hCB2R
human CB2R, sequence (P34972 whole entry): as above
Procedure: (§3) Competition and saturation binding assays were performed using the radiolabeled CB1R/CB2R agonist [^3H]-CP55940 (PerkinElmer).
(§4) Binding reactions were terminated by vacuum filtration onto 0.5% polyethylenimine presoaked GF/B filter plates (Packard) using a Filtermate cell harvester followed by 6 brief washes with 0.3 mL/well of ice-cold wash buffer. Wash buffer comprising 50 mmol L^–1 Tris- HCl, 5 mmol L^–1 MgCl2, 2.5 mmol L^–1 EDTA, and 0.5% fatty acid-free BSA, pH 7.4. Plates were dried at 50 °C for 1 h and liquid scintillation counting was used to determine levels of bound radiolabel. IC50 values and Hill slopes were determined with a 4-parameter logistic model using ActivityBase (ID Business Solution, Guilford, UK) and pKi values were determined using the Cheng–Prusoff equation as shown below: [drawing 1] where S indicates the concentration of the substrate and Km depicts the affinity constant of the substrate.

hCB1R [5] = molecular target: T1, hCB1R; assay: as above
Procedure: as §3, §4

Microsomal clearance [6] = assay type: in vitro ADME; conditions: rat, rat microsomes, Table 1
[7] = molecular target: T2, CB2R in wild-type rat spleen membranes (Rattus norvegicus, UniProt Q9QZN9); assay type: binding; conditions: WT rat spleen membranes
T2 construct: from tissue; host or cells: rat spleen membranes
T2 sequence (Q9QZN9 whole entry): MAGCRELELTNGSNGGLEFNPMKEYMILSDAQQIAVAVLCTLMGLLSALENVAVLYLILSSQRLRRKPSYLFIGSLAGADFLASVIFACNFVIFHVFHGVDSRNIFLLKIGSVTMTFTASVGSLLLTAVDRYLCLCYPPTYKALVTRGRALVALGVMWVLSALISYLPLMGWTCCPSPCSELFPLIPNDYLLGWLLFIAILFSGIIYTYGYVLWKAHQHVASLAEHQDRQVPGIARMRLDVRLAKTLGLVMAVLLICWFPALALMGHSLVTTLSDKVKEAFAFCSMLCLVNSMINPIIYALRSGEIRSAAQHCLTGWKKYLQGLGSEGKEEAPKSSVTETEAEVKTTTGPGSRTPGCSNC

[8] = system: UUO-induced kidney fibrosis; assay: Unilateral ureteral obstruction (UUO) model of kidney fibrosis; assay type: in vivo, Sprague–Dawley rats; conditions: 32 mg kg^–1, day 5, time-course experiment
Procedure: (§2) In the ischemia/reperfusion (I/R) model of acute kidney injury (AKI),[47],[48] the compounds were administered orally by gavage to C57BL/6 mice 30 min before ischemia obtained by clamping both renal arteries and veins for 25 min, followed by 24 h of reperfusion. Mice were anesthetized using xylazine (10 mg kg^–1)/ketamine (100 mg kg^–1) injected intraperitoneally. Sham treated mice were treated identically except for the temporary closure of the renal vessels. After 24 h, under reanesthesia, plasma was taken for biomarker analysis. Thereafter, mice still in deep anesthesia were sacrificed by cervical dislocation. Creatinine, BUN (blood urea nitrogen), NGAL (neutrophil gelatinase-associated lipocalin), osteopontin, and KIM1 (kidney injury molecule-1) levels were determined using the following commercially available standard assays: creatinine: Roche Diagnostics 03263991, BUN: Roche Diagnostics 04460715, NGAL: BioPorto, Kit046 + Kit042, osteopontin: R&D Systems, MOST00, KIM-1: Abnova, KA1064. To assess fibrotic effects, we used the unilateral ureteral obstruction (UOO) model in Sprague–Dawley rats.[49] For the UOO model, rats were sacrificed after 5, 8, and 11 days and the percentage of PicroSirius Red positive areas (indicator of collagen III–I deposition) were measured in 4 μm histological cross sections of the kidney after 2% paraformaldehyde perfusion fixation and paraffin embedding. The extend of kidney fibrosis was quantified based on PicroSirius Red staining of 10 renal sections about 1 mm apart from each kidney. The collagen–III-I-positive pixel counts were determined in the cortical aspect of each kidney section from 10 optical fields using a 40× objective. As the total area analyzed was identical for all kidneys under investigation, the absolute number of pixels was used as the relevant readout. Vehicle treated animals received saline gavage only. The details of PicroSirius Red staining were previously described.[22]

[9] = system: renal I/R-induced acute kidney injury; assay: Ischemia/reperfusion (I/R) model of acute kidney injury; assay type: in vivo, C57BL/6 mice
Procedure: as §2

[10] = Table 1, mean ± SD, read-out: EC50 hCB2R (cAMP assay)

T1 sequence (P21554 whole entry): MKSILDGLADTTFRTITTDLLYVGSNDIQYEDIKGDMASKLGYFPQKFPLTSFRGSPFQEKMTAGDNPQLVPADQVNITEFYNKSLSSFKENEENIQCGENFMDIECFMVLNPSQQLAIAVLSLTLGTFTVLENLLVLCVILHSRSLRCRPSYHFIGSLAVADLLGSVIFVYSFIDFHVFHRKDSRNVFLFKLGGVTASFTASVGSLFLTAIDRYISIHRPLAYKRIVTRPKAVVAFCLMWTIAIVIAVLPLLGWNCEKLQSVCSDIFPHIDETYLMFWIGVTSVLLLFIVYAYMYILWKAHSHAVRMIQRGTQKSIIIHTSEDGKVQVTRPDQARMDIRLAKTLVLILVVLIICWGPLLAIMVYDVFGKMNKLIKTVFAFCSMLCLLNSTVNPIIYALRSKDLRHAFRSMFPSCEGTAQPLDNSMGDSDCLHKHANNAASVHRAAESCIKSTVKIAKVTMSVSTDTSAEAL

Structure (SMILES)	EC50 (hCB1R [1]) [nM]	solubility (Solubility (Table 1)) [µg/mL]	logD [2]	Papp [3] [×10⁻⁶ cm/s]	microsomal CLint (Microsomal clearance [4]) [µL/min/mg]	EC50 (human wild type CB2R; [10]) [nM]	hCB2R selectivity (human CB2R)	microsomal CLint (Microsomal clearance [6]) [µL/min/mg]	also measured
COCCOCCc1cc(NC(=O)C(C)(C)S(=O)(=O)C2CCOCC2)on1 [RNB-70]	> 10000	> 510	0.8	5.9	< 10	13 ± 2.58	>559	–	Ki (hCB1R [5]): > 10000 nM
N#Cc1cc(NC(=O)CCc2nc(-c3ccc(F)cc3Cl)no2)cnc1CC(F)(F)F [RNB-73]	> 10000	< 1	3.86	7.4	< 10	7.13 ± 2.19	>153	< 10	Ki (hCB1R [5]): > 10000 nM
CC(C)(Oc1ccc(C(F)(F)F)cn1)C(=O)Cc1cc(C(C)(C)C)no1 [RNB-90]	19.6 ± 1.18	< 1	4.07	2	15	0.26 ± 0.05	307	81	–
CC1(C)C(C(=O)c2cn(CCN3CCOCC3)c3ccccc23)C1(C)C [RNB-92]	–	2 (≈ 5.64 µM)	3.43	–	420	–	–	730	EC50 (human wild type CB2R): 0.17 ± 0.01 nM
Cc1c(C(=O)NN2CCCCC2)nn(-c2ccc(Cl)cc2Cl)c1-c1ccc(Cl)cc1 [SR1]	–	–	–	–	–	–	–	–	reduction of [3H]-RNB-61 radioactivity ([7]; competitor 1 μM): did not result in a significant difference
Cc1c(C(=O)c2cccc3ccccc23)c2cccc3c2n1[C@H](CN1CCOCC1)CO3 [WIN55,212–2]	–	–	–	–	–	–	–	–	reduction of [3H]-RNB-61 radioactivity ([7]; competitor 10 μM): significant reduction
CCOC(=O)[C@H](CCc1ccccc1)N[C@@H](C)C(=O)N1CCC[C@H]1C(=O)O [enalapril, reference compound]	–	–	–	–	–	–	–	–	collagen–III-I positive area vs vehicle [8]: No significant difference
Oc1ccc(C2CNCCc3c2cc(O)c(O)c3Cl)cc1 (centres unmarked) [fenoldopam, reference compound]	–	–	–	–	–	–	–	–	reduction of BUN compared to vehicle ([9]; 20 mg kg^–1): 39%; reduction of plasma creatinine compared to vehicle ([9]; 20 mg kg^–1): 55%
CN(C(=O)c1cc(C(F)(F)F)ccc1OCC(C)(C)O)c1cc(C(C)(C)C)nn1CC1CCC1 [regioisomer of RNB-61]	–	–	–	–	–	–	–	–	activity (data not shown) (human CB2R; assay not specified): inactive
CC1(C)CC(O)CC(C)(C)N1[O] [tempol, reference compound]	–	–	–	–	–	–	–	–	reduction of BUN compared to vehicle ([9]; 50 mg kg^–1): 26%; reduction of plasma KIM-1 compared to vehicle ([9]; 50 mg kg^–1): 57%; reduction of plasma NGAL compared to vehicle ([9]; 50 mg kg^–1): 43%; reduction of plasma creatinine compared to vehicle ([9]; 50 mg kg^–1): 35%; reduction of plasma osteopontin compared to vehicle ([9]; 50 mg kg^–1): 49%
